Results taken from patent US20240180900A1, “COMPOUNDS AND METHODS FOR THE TARGETED DEGRADATION OF ANDROGEN RECEPTOR” (Arvinas Operations, Inc., priority 2022, published 2024).

Test: Phase 1/2 study in mCRPC participants: safety
[1] = all-causality TEAEs, Phase 1, N = 34
[2] = all-causality TEAEs, Phase 2, N = 13

SMILES: COc1cc(O[C@H]2C(C)(C)[C@H](NC(=O)c3ccc(N4CCC(CN5CCN(c6ccc(C(=O)N[C@H]7CCC(=O)NC7=O)c(F)c6)CC5)CC4)cc3)C2(C)C)ccc1C#N [Compound A, 4-(4-((1-(4-(((1R,3R)-3-(4-cyano-3-methoxyphenoxy)-2,2,4,4-tetramethylcyclobutyl)carbamoyl)phenyl)piperidin-4-yl)methyl)piperazin-1-yl)-N—((S)-2,6-dioxopiperidin-3-yl)-2-fluorobenzamide]
- Fatigue: Grade 5 [1]: 0 participants
- Gastrointestinal disorders: Any Grade [1]: 15 participants
- Gastrointestinal disorders: Grade 3 [1]: 2 participants
- Gastrointestinal disorders: Grade 4 [1]: 0 participants
- Gastrointestinal disorders: Grade 5 [1]: 0 participants
- General disorders and administration site conditions: Any Grade [1]: 16 participants
- General disorders and administration site conditions: Grade 3 [1]: 1 participants
- General disorders and administration site conditions: Grade 4 [1]: 0 participants
- General disorders and administration site conditions: Grade 5 [1]: 0 participants
- Hyponatraemia: Any Grade [1]: 4 participants
- Hyponatraemia: Grade 3 [1]: 0 participants
- Hyponatraemia: Grade 4 [1]: 0 participants
- Hyponatraemia: Grade 5 [1]: 0 participants
- Hypophosphataemia: Any Grade [1]: 4 participants
- Hypophosphataemia: Grade 3 [1]: 0 participants
- Hypophosphataemia: Grade 4 [1]: 0 participants
- Hypophosphataemia: Grade 5 [1]: 0 participants
- Insomnia: Any Grade [1]: 5 participants
- Insomnia: Grade 3 [1]: 0 participants
- Insomnia: Grade 4 [1]: 0 participants
- Insomnia: Grade 5 [1]: 0 participants
- Investigations: Any Grade [1]: 19 participants
- Investigations: Grade 3 [1]: 1 participants
- Investigations: Grade 4 [1]: 1 participants
- Investigations: Grade 5 [1]: 0 participants
- Lymphocyte count decreased: Any Grade [1]: 4 participants
- Lymphocyte count decreased: Grade 3 [1]: 0 participants
- Lymphocyte count decreased: Grade 4 [1]: 1 participants
- Lymphocyte count decreased: Grade 5 [1]: 0 participants
- Metabolism and nutrition disorders: Any Grade [1]: 15 participants
- Metabolism and nutrition disorders: Grade 3 [1]: 1 participants
- Metabolism and nutrition disorders: Grade 4 [1]: 0 participants
- Metabolism and nutrition disorders: Grade 5 [1]: 0 participants
- Nausea: Any Grade [1]: 7 participants
- Nausea: Grade 3 [1]: 0 participants
- Nausea: Grade 4 [1]: 0 participants
- Nausea: Grade 5 [1]: 0 participants
- Neutrophil count decreased: Any Grade [1]: 4 participants
- Neutrophil count decreased: Grade 3 [1]: 0 participants
- Neutrophil count decreased: Grade 4 [1]: 0 participants
- Neutrophil count decreased: Grade 5 [1]: 0 participants
- Participants with any TEAEs: Any Grade [1]: 33 participants
- Participants with any TEAEs: Grade 3 [1]: 10 participants
- Participants with any TEAEs: Grade 4 [1]: 2 participants
- Participants with any TEAEs: Grade 5 [1]: 1 (2.9) participants
- Psychiatric disorders: Any Grade [1]: 7 participants
- Psychiatric disorders: Grade 3 [1]: 0 participants
- Psychiatric disorders: Grade 4 [1]: 0 participants
- Psychiatric disorders: Grade 5 [1]: 0 participants
- Rash maculo-papular: Any Grade [1]: 4 participants
- Rash maculo-papular: Grade 3 [1]: 0 participants
- Rash maculo-papular: Grade 4 [1]: 0 participants
- Rash maculo-papular: Grade 5 [1]: 0 participants
- Respiratory, thoracic and mediastinal disorders: Any Grade [1]: 6 participants
- Respiratory, thoracic and mediastinal disorders: Grade 3 [1]: 2 participants
- Respiratory, thoracic and mediastinal disorders: Grade 4 [1]: 0 participants
- Respiratory, thoracic and mediastinal disorders: Grade 5 [1]: 0 participants
- Skin and subcutaneous tissue disorders: Any Grade [1]: 10 participants
- Skin and subcutaneous tissue disorders: Grade 3 [1]: 0 participants
- Skin and subcutaneous tissue disorders: Grade 4 [1]: 0 participants
- Skin and subcutaneous tissue disorders: Grade 5 [1]: 0 participants
- Abdominal pain: Any Grade [2]: 2 participants
- Abdominal pain: Grade 3 [2]: 1 participants
- Abdominal pain: Grade 4 [2]: 0 participants
- Abdominal pain: Grade 5 [2]: 0 participants
- Alopecia: Any Grade [2]: 2 participants
- Alopecia: Grade 3 [2]: 0 participants
- Alopecia: Grade 4 [2]: 0 participants
- Alopecia: Grade 5 [2]: 0 participants
- Anaemia: Any Grade [2]: 4 participants
- Anaemia: Grade 3 [2]: 0 participants
- Anaemia: Grade 4 [2]: 0 participants
- Anaemia: Grade 5 [2]: 0 participants
- Blood alkaline phosphatase increased: Any Grade [2]: 3 participants
- Blood alkaline phosphatase increased: Grade 3 [2]: 0 participants
- Blood alkaline phosphatase increased: Grade 4 [2]: 0 participants
- Blood alkaline phosphatase increased: Grade 5 [2]: 0 participants
- Blood and lymphatic system disorders: Any Grade [2]: 4 participants
- Blood and lymphatic system disorders: Grade 3 [2]: 0 participants
- Blood and lymphatic system disorders: Grade 4 [2]: 0 participants
- Blood and lymphatic system disorders: Grade 5 [2]: 0 participants
- Diarrhoea: Any Grade [2]: 3 participants
- Diarrhoea: Grade 3 [2]: 0 participants
- Diarrhoea: Grade 4 [2]: 0 participants
- Diarrhoea: Grade 5 [2]: 0 participants
- Dysgeusia: Any Grade [2]: 3 participants
- Dysgeusia: Grade 3 [2]: 0 participants
- Dysgeusia: Grade 4 [2]: 0 participants
- Dysgeusia: Grade 5 [2]: 0 participants
- Fatigue: Any Grade [2]: 2 participants
- Fatigue: Grade 3 [2]: 0 participants
- Fatigue: Grade 4 [2]: 0 participants
- Fatigue: Grade 5 [2]: 0 participants
- Gastrointestinal disorders: Any Grade [2]: 7 participants
- Gastrointestinal disorders: Grade 3 [2]: 1 participants
- Gastrointestinal disorders: Grade 4 [2]: 0 participants
- Gastrointestinal disorders: Grade 5 [2]: 0 participants
- General disorders and administration site conditions: Any Grade [2]: 2 participants
- General disorders and administration site conditions: Grade 3 [2]: 0 participants
- General disorders and administration site conditions: Grade 4 [2]: 0 participants
- General disorders and administration site conditions: Grade 5 [2]: 0 participants
- Haematuria: Any Grade [2]: 3 participants
- Haematuria: Grade 3 [2]: 0 participants
- Haematuria: Grade 4 [2]: 0 participants
- Haematuria: Grade 5 [2]: 0 participants
- Hypertension: Any Grade [2]: 2 participants
- Hypertension: Grade 3 [2]: 1 participants
- Hypertension: Grade 4 [2]: 0 participants
- Hypertension: Grade 5 [2]: 0 participants
- Investigations: Any Grade [2]: 5 participants
- Investigations: Grade 3 [2]: 0 participants
- Investigations: Grade 4 [2]: 0 participants
- Investigations: Grade 5 [2]: 0 participants
- Nausea: Any Grade [2]: 2 participants
- Nausea: Grade 3 [2]: 0 participants
- Nausea: Grade 4 [2]: 0 participants
- Nausea: Grade 5 [2]: 0 participants
- Nervous system disorders: Any Grade [2]: 3 participants
- Nervous system disorders: Grade 3 [2]: 0 participants
- Nervous system disorders: Grade 4 [2]: 0 participants
- Nervous system disorders: Grade 5 [2]: 0 participants
- Participants with any TEAEs: Any Grade [2]: 11 participants
- Participants with any TEAEs: Grade 3 [2]: 2 participants
- Participants with any TEAEs: Grade 4 [2]: 0 participants
- Participants with any TEAEs: Grade 5 [2]: 0 participants
- Proteinuria: Any Grade [2]: 2 participants
- Proteinuria: Grade 3 [2]: 0 participants
- Proteinuria: Grade 4 [2]: 0 participants
- Proteinuria: Grade 5 [2]: 0 participants
- Renal and urinary disorders: Any Grade [2]: 6 participants
- Renal and urinary disorders: Grade 3 [2]: 0 participants
- Renal and urinary disorders: Grade 4 [2]: 0 participants
- Renal and urinary disorders: Grade 5 [2]: 0 participants
- Skin and subcutaneous tissue disorders: Any Grade [2]: 2 participants
- Skin and subcutaneous tissue disorders: Grade 3 [2]: 0 participants
- Skin and subcutaneous tissue disorders: Grade 4 [2]: 0 participants
- Skin and subcutaneous tissue disorders: Grade 5 [2]: 0 participants
- Vascular disorders: Any Grade [2]: 2 participants
- Vascular disorders: Grade 3 [2]: 1 participants
- Vascular disorders: Grade 4 [2]: 0 participants
- Vascular disorders: Grade 5 [2]: 0 participants
- Vomiting: Any Grade [2]: 2 participants
- Vomiting: Grade 3 [2]: 0 participants
- Vomiting: Grade 4 [2]: 0 participants
- Vomiting: Grade 5 [2]: 0 participants
- deaths considered related to Compound A (study start until data cut-off): No deaths were considered related to Compound A
- deaths reported (study start until data cut-off): Five
